PubChem BioAssay AID330 (DTP/NCI, 2004)
Where “and” joins values, the source holds several entries; their conditions need not be identical. Identical values can stand only once. Toxic doses and inconclusive results are not listed.

System: P388 leukemia ip, CD2F1 mice, survival T/C
Test: NCI In Vivo Anticancer Drug Screen. Data for tumor model P388 Leukemia (intraperitoneal) in CD2F1 (CDF1) mice
Details: endpoint: median survival time, higher = longer survival
How it was run: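 Mice carrying the transplanted tumor received test compound or vehicle. Survival was recorded in each group, and the value is the treated-group measurement divided by that of the vehicle-treated control group.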

[1] = dose: 100.0 mg/kg/injection, schedule: Q01DX005 (ip), vehicle: saline with Tween-80
[2] = dose: 60.0 mg/kg/injection, schedule: Q01DX005 (ip), vehicle: saline
[3] = dose: 120.0 mg/kg/injection, schedule: Q01DX005 (ip), vehicle: saline
[4] = dose: 12.5 mg/kg/injection, schedule: Q01DX009 (ip), vehicle: saline with Tween-80
[5] = dose: 12.5 mg/kg/injection, schedule: Q01DX009 (ip), vehicle: saline
[6] = dose: 25.0 mg/kg/injection, schedule: Q01DX009 (ip), vehicle: saline
[7] = dose: 100.0 mg/kg/injection, schedule: Q01DX009 (ip), vehicle: saline
[8] = dose: 200.0 mg/kg/injection, schedule: Q01DX009 (ip), vehicle: saline
[9] = dose: 50.0 mg/kg/injection, schedule: Q01DX009 (ip), vehicle: saline with Tween-80
[10] = dose: 100.0 mg/kg/injection, schedule: Q01DX009 (ip), vehicle: saline with Tween-80
[11] = dose: 200.0 mg/kg/injection, schedule: Q01DX009 (ip), vehicle: saline with Tween-80
[12] = dose: 50.0 mg/kg/injection, schedule: Q01DX009 (ip), vehicle: saline
[13] = dose: 60.0 mg/kg/injection, schedule: Q01DX005 (ip), vehicle: saline with Tween-80
[14] = dose: 50.0 mg/kg/injection, schedule: Q01DX005 (ip), vehicle: saline
[15] = dose: 100.0 mg/kg/injection, schedule: Q01DX005 (ip), vehicle: saline

Which T/C (dose: 6.25 mg/kg/injection, schedule: Q01DX005 (ip), vehicle: saline with Tween-80) does the source give for `CCOC(=O)c1cc(-c2cc(C(=O)OCC)c3ccccc3n2)nc2ccccc12` here?
Its T/C is 96 % of control.

And the T/C (dose: 12.5 mg/kg/injection, schedule: Q01DX005 (ip), vehicle: saline with Tween-80)?
The T/C was 95 % of control.

And the T/C (dose: 25.0 mg/kg/injection, schedule: Q01DX005 (ip), vehicle: saline with Tween-80)?
Its T/C is 100 % of control.

And the T/C [1]?
Its T/C is 86 % of control.

`Nc1nc(-c2cc(-c3ccco3)nc(N)n2)cc(-c2ccco2)n1` was tested. Which T/C [2] did it give?
Its T/C is 103 % of control.

What about the T/C [3] of the same compound?
The T/C was 103 % of control.

What about the T/C (dose: 240.0 mg/kg/injection, schedule: Q01DX005 (ip), vehicle: saline) of the same compound?
The T/C was 101 % of control.

Which results are given for `COc1ccc(/C=C/c2ccc3ccccc3[n+]2C)c(OC)c1OC`?
T/C (dose: 0.63 mg/kg/injection, schedule: Q01DX009 (ip), vehicle: Klucel (hydroxypropylcellulose) (HPC)): 107 % of control; T/C (dose: 1.25 mg/kg/injection, schedule: Q01DX009 (ip), vehicle: Klucel (hydroxypropylcellulose) (HPC)): 110 % of control; T/C (dose: 5.0 mg/kg/injection, schedule: Q01DX009 (ip), vehicle: Klucel (hydroxypropylcellulose) (HPC)): 107 % of control

For `O=P(N1CC1)(N1CC1)N1CC2CCC(CC2)C1`, which T/C (dose: 3.13 mg/kg/injection, schedule: Q01DX009 (ip), vehicle: saline with Tween-80) is on record?
Its T/C is 109 % of control.

And the T/C (dose: 6.25 mg/kg/injection, schedule: Q01DX009 (ip), vehicle: saline with Tween-80)?
Its T/C is 154 % of control.

What about the T/C [4] of the same compound?
The T/C was 204 % of control.

What about the T/C [5] of the same compound?
The T/C was 159 % of control.

And the T/C (dose: 12.5 mg/kg/injection, schedule: Q04DX003 (ip), vehicle: saline)?
The T/C was 120 % of control.

And the T/C [6]?
The T/C was 118 % of control.

What about the T/C (dose: 25.0 mg/kg/injection, schedule: Q04DX003 (ip), vehicle: saline) of the same compound?
Its T/C is 166 % of control.

And the T/C (dose: 50.0 mg/kg/injection, schedule: Q04DX003 (ip), vehicle: saline)?
The T/C was 154 % of control.

Which results are given for `CCOC(=O)C1=C(C)NC(C)=C(C(=O)OCC)C1C`?
T/C [7]: 102 % of control; T/C [8]: 89 % of control

How did the T/C [9] turn out when `Cc1ccccc1C1SCC(=O)N1c1ccccn1` (stereo not given) was run?
The T/C was 104 % of control.

What about the T/C [10] of the same compound?
Its T/C is 101 % of control.

What about the T/C [11] of the same compound?
Its T/C is 95 % of control.

For `CC(=O)OC1C(=O)OC(=O)C(OC(C)=O)C1OC(C)=O` (stereo not given), which T/C [12] is on record?
The T/C was 100 % of control.

What about the T/C [7] of the same compound?
Its T/C is 93 % of control.

What about the T/C [8] of the same compound?
The T/C was 100 % of control.

Which T/C [9] does the source give for `O=[n+]1c2c(n([O-])c3ccccc31)CCCCCC2` here?
The T/C was 108 % of control.

What about the T/C [10] of the same compound?
The T/C was 99 % of control.

What about the T/C [11] of the same compound?
The T/C was 100 % of control.

With `CCOC(=O)C1CCC(=O)N1Cc1c[nH]c2ccccc12` (stereo not given) as the compound, how does the T/C [13] read?
The T/C was 92 % of control.

And the T/C (dose: 120.0 mg/kg/injection, schedule: Q01DX005 (ip), vehicle: saline with Tween-80)?
Its T/C is 94 % of control.

And the T/C (dose: 240.0 mg/kg/injection, schedule: Q01DX005 (ip), vehicle: saline with Tween-80)?
The T/C was 94 % of control.

With `COC(=O)CCCN1CC2C=C(C#N)C1C(C(=O)OC)C2` (stereo not given) as the compound, how does the T/C [2] read?
Its T/C is 98 % of control.

And the T/C [3]?
The T/C was 96 % of control.

Which T/C (dose: 30.0 mg/kg/injection, schedule: Q01DX005 (ip), vehicle: saline with Tween-80) does the source give for `CCc1nc(N)nc(N)c1-c1ccc(NCCCN)c([N+](=O)[O-])c1` here?
Its T/C is 106 % of control.

What about the T/C [13] of the same compound?
Its T/C is 108 % of control and 110 % of control.

Which results are given for `O=C1CCCC(=O)OCCOCCOCCOCCOCCO1`?
T/C [5]: 104 % of control and 108 % of control; T/C [6]: 104 % of control and 95 % of control; T/C [12]: 104 % of control and 108 % of control and 120 % of control; T/C [7]: 105 % of control; T/C [8]: 105 % of control

Which results are given for `CC(C)(C)c1cc(C(O)(C(F)(F)F)C(F)(F)F)c(Cl)c(C(O)(C(F)(F)F)C(F)(F)F)c1`?
T/C (dose: 50.0 mg/kg/injection, schedule: Q01DX005 (ip), vehicle: Klucel (hydroxypropylcellulose) (HPC)): 94 % of control; T/C (dose: 100.0 mg/kg/injection, schedule: Q01DX005 (ip), vehicle: Klucel (hydroxypropylcellulose) (HPC)): 90 % of control; T/C (dose: 200.0 mg/kg/injection, schedule: Q01DX005 (ip), vehicle: Klucel (hydroxypropylcellulose) (HPC)): 92 % of control

Which T/C [14] does the source give for `COC(CNC(=O)COc1ccccc1OCC(=O)NCC(OC)OC)OC` here?
Its T/C is 99 % of control.

And the T/C [15]?
The T/C was 102 % of control.

What about the T/C (dose: 200.0 mg/kg/injection, schedule: Q01DX005 (ip), vehicle: saline) of the same compound?
Its T/C is 102 % of control.

Which results are given for `CN1C(=O)c2ccccc2N=CN1C(=O)Nc1ccccc1`?
T/C (dose: 50.0 mg/kg/injection, schedule: Q01DX005 (ip), vehicle: saline with Tween-80): 94 % of control; T/C [1]: 90 % of control; T/C (dose: 200.0 mg/kg/injection, schedule: Q01DX005 (ip), vehicle: saline with Tween-80): 88 % of control

With `CC1(C)c2c3ccccc3cc3cccc(c23)[S+]1c1ccccc1` (stereo not given) as the compound, how does the T/C (dose: 5.0 mg/kg/injection, schedule: Q04DX003 (ip), vehicle: saline) read?
Its T/C is 100 % of control.

What about the T/C (dose: 10.0 mg/kg/injection, schedule: Q04DX003 (ip), vehicle: saline) of the same compound?
Its T/C is 104 % of control.

And the T/C (dose: 20.0 mg/kg/injection, schedule: Q04DX003 (ip), vehicle: saline)?
Its T/C is 108 % of control.

For `N#Cc1ccc(Br)cc1[N+](=O)[O-]`, which T/C (dose: 0.78 mg/kg/injection, schedule: Q01DX009 (ip), vehicle: Klucel (hydroxypropylcellulose) (HPC)) is on record?
Its T/C is 106 % of control.

What about the T/C (dose: 1.56 mg/kg/injection, schedule: Q01DX009 (ip), vehicle: Klucel (hydroxypropylcellulose) (HPC)) of the same compound?
The T/C was 102 % of control.

What about the T/C (dose: 3.12 mg/kg/injection, schedule: Q01DX009 (ip), vehicle: Klucel (hydroxypropylcellulose) (HPC)) of the same compound?
Its T/C is 100 % of control and 96 % of control.

With `CC(C)(C)N=C(CCN1CCN(CCC(=NC(C)(C)C)Nc2ccc([N+](=O)[O-])cc2)CC1)Nc1ccc([N+](=O)[O-])cc1` as the compound, how does the T/C [4] read?
Its T/C is 92 % of control.

And the T/C (dose: 25.0 mg/kg/injection, schedule: Q01DX009 (ip), vehicle: saline with Tween-80)?
The T/C was 96 % of control.

And the T/C (dose: 50.0 mg/kg/injection, schedule: Q01DX009 (ip), vehicle: Klucel (hydroxypropylcellulose) (HPC))?
The T/C was 87 % of control.

What about the T/C [9] of the same compound?
The T/C was 91 % of control.

And the T/C (dose: 200.0 mg/kg/injection, schedule: Q01DX009 (ip), vehicle: Klucel (hydroxypropylcellulose) (HPC))?
The T/C was 93 % of control.

For `CCCCN(CCNc1cc(OC)cc2cccnc12)C1CCCC1`, which T/C [14] is on record?
Its T/C is 104 % of control.

What about the T/C [15] of the same compound?
Its T/C is 88 % of control.

With `Cc1ncc(O)c(C(=O)O)c1C(=O)O` as the compound, how does the T/C (dose: 17.5 mg/kg/injection, schedule: Q01DX005 (ip), vehicle: Klucel (hydroxypropylcellulose) (HPC)) read?
Its T/C is 100 % of control.

What about the T/C (dose: 35.0 mg/kg/injection, schedule: Q01DX005 (ip), vehicle: Klucel (hydroxypropylcellulose) (HPC)) of the same compound?
Its T/C is 103 % of control.

What about the T/C (dose: 70.0 mg/kg/injection, schedule: Q01DX005 (ip), vehicle: Klucel (hydroxypropylcellulose) (HPC)) of the same compound?
Its T/C is 100 % of control.

With `CCCC#CC(=O)OC` as the compound, how does the T/C [9] read?
Its T/C is 97 % of control.

What about the T/C [10] of the same compound?
Its T/C is 100 % of control.

And the T/C [11]?
Its T/C is 106 % of control.

With `O=C(O)c1ccccc1C(=O)O.[Cu+2].[NH-]CCC[NH-]` as the compound, how does the T/C (dose: 12.5 mg/kg/injection, schedule: Q04DX002 (ip), vehicle: saline with Tween-80) read?
Its T/C is 115 % of control.
